Experimental data as given in doi:10.1101/2025.05.06.651509v2 (biorxiv, 2026).

Columns and labels:
[1] = biological target: T1, TSC22D4 (Homo sapiens, UniProt Q9Y3Q8); assay: microscale thermophoresis; format: binding; details: room temperature
T1 sequence (Q9Y3Q8 1-395): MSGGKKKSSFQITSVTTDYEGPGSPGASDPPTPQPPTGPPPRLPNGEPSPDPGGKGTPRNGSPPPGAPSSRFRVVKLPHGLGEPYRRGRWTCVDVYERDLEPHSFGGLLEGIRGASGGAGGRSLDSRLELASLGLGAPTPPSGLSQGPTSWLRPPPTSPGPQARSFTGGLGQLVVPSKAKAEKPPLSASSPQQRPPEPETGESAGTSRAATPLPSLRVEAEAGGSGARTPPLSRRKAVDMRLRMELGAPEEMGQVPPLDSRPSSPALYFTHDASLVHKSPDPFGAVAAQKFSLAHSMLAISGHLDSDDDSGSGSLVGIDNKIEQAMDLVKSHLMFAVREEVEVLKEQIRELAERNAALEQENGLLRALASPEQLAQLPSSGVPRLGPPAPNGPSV

[2] = biological target: IGF2BP2 (Homo sapiens, UniProt Q9Y6M1); assay: microscale thermophoresis; format: binding; details: room temperature; legend of Figure 4A prints 12 μM
IGF2BP2, sequence (Q9Y6M1 whole entry): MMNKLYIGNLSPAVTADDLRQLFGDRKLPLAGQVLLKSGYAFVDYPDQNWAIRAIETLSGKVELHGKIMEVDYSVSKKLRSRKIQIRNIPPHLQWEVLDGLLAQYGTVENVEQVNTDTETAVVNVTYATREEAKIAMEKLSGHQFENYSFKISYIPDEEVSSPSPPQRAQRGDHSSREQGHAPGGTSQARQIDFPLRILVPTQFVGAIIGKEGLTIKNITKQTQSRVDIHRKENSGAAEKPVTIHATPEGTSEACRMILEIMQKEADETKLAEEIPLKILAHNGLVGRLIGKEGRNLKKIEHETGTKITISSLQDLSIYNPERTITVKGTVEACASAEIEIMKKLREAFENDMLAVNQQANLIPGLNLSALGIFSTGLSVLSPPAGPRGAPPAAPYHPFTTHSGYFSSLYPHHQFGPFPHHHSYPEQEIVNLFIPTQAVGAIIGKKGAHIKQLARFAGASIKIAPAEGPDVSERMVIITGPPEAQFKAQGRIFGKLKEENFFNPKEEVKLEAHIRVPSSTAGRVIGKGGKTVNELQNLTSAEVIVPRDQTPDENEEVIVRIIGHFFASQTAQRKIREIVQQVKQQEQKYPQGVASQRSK

OC[C@H]1OC(O)[C@H](O)[C@@H](O)[C@@H]1O (some centres unmarked) [glucose]
Kd [1]: ~464 µM | Kd [2]: 8.2 µM
